Assay results: patent US9708314B2, “Heterocyclic amide compound” (NISSAN CHEMICAL INDUSTRIES, LTD., priority 2013, dated 2017)

Legend:
Format in all cases: in vivo
[1] = system: Echinochloa oryzacola Vasing.; test: Test Example 2: herbicidal activity, application during weed generation in submerged conditions; settings: Eighteenth Table; application herbicide amount 320 g/ha
How it was run: (§1)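 Paddy-type pot test: flooded soil, 4 cm depth, greenhouse 25–30 °C. Emulsion formulation diluted in water, applied to water surface at 1–2 leaf stage; rate expressed as g/ha. Read-out at 3 wk, 0–5 score.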

Monochoria vaginalis = test: as above; settings: Eighteenth Table; application herbicide amount 320 g/ha
How it was run: as §1

Scirpus juncoides = test: as above; settings: Eighteenth Table; application herbicide amount 320 g/ha
How it was run: as §1

Abutilon theophrasti = test: Test Example 4: herbicidal effect by application to foliage (diluvial soil, plastic box); settings: application to foliage; for M: herbicidal effect on Abutilon theophrasti: application herbicide amount 320 g/ha
How it was run: (§2)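 Read-out is a 0–5 visual grade of herbicidal ratio (5: ≥90%, almost withered; 0: ≤5%) taken three weeks after treatment. Compound was applied as a diluted emulsion to stem and leaf parts of 14-day greenhouse-grown plants (25° C. to 30° C.) at rates expressed as g/ha.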

Alopecurus myosuroides = test: as above; settings: application to foliage; for J: herbicidal effect on Alopecurus myosuroides: application herbicide amount 320 g/ha
How it was run: as §2

Amaranthus retroflexus = test: as above; settings: application to foliage; for N: herbicidal effect on Amaranthus retroflexus: application herbicide amount 320 g/ha
How it was run: as §2

Apera spica-venti. = test: as above; settings: application to foliage; for L: herbicidal effect on Apera spica-venti.: application herbicide amount 320 g/ha
How it was run: as §2

Avena fatua = test: as above; settings: application to foliage; for I: herbicidal effect on Avena fatua: application herbicide amount 320 g/ha
How it was run: as §2

Chenopodium album = test: as above; settings: application to foliage, application herbicide amount 320 g/ha
How it was run: as §2

Digitaria ciliaris = test: as above; settings: application to foliage; for F: herbicidal effect on Digitaria ciliaris: application herbicide amount 320 g/ha
How it was run: as §2

[2] = system: Echinochloa crus-galli var. crus-galli; test: as above; settings: application to foliage; for H: herbicidal effect on Echinochloa crus-galli var. crus-galli: application herbicide amount 320 g/ha
How it was run: as §2

Galium spurium = test: as above; settings: application to foliage; for Q: herbicidal effect on Galium spurium: application herbicide amount 320 g/ha
How it was run: as §2

Lolium multiflorum Lam. = test: as above; settings: application to foliage; for K: herbicidal effect on Lolium multiflorum Lam.: application herbicide amount 320 g/ha
How it was run: as §2

Setaria viridis = test: as above; settings: application to foliage; for G: herbicidal effect on Setaria viridis: application herbicide amount 320 g/ha
How it was run: as §2

Stellaria media = test: as above; settings: application to foliage; for P: herbicidal effect on Stellaria media: application herbicide amount 320 g/ha
How it was run: as §2

Veronica persica = test: as above; settings: application to foliage; for R: herbicidal effect on Veronica persica: application herbicide amount 320 g/ha
How it was run: as §2

[3] = system: Beta vulgaris ssp. vulgaris; test: Test Example 4: effect on crop by application to foliage (diluvial soil, plastic box); settings: application to foliage; for f: effect on crop, Beta vulgaris ssp. vulgaris: application herbicide amount 320 g/ha
How it was run: as §2

Brassica campestris L. = test: as above; settings: application to foliage; for g: effect on crop, Brassica campestris L.: application herbicide amount 320 g/ha
How it was run: as §2

Glycine max = test: as above; settings: application to foliage; for d: effect on crop, Glycine max: application herbicide amount 320 g/ha
How it was run: as §2

Triticum aestivum = test: as above; settings: application to foliage; for e: effect on crop, Triticum aestivum: application herbicide amount 320 g/ha
How it was run: as §2

Zea mays = test: as above; settings: application to foliage; for c: effect on crop, Zea mays: application herbicide amount 320 g/ha
How it was run: as §2

[4] = system: directly sowed Oryza sativa; test: as above; settings: application to foliage; for b: effect on crop, directly sowed Oryza sativa: application herbicide amount 320 g/ha
How it was run: as §2

Structure (SMILES)	A (Echinochloa oryzicola Vasing.) herbicidal ratio grade [1]	C (Monochoria vaginalis) herbicidal ratio grade (Monochoria vaginalis)	B (Scirpus juncoides) herbicidal ratio grade (Scirpus juncoides)	M: herbicidal effect on Abutilon theophrasti (Abutilon theophrasti)	J: herbicidal effect on Alopecurus myosuroides (Alopecurus myosuroides)	N: herbicidal effect on Amaranthus retroflexus (Amaranthus retroflexus)	L: herbicidal effect on Apera spica-venti. (Apera spica-venti.)	I: herbicidal effect on Avena fatua (Avena fatua)	O: herbicidal effect on Chenopodium album (Chenopodium album)	F: herbicidal effect on Digitaria ciliaris (Digitaria ciliaris)	H: herbicidal effect on Echinochloa crus-galli var. crus-galli [2]	Q: herbicidal effect on Galium spurium (Galium spurium)	K: herbicidal effect on Lolium multiflorum Lam. (Lolium multiflorum Lam.)	G: herbicidal effect on Setaria viridis (Setaria viridis)	P: herbicidal effect on Stellaria media (Stellaria media)	R: herbicidal effect on Veronica persica (Veronica persica)	f: effect on crop, Beta vulgaris ssp. vulgaris [3]	g: effect on crop, Brassica campestris L. (Brassica campestris L.)	d: effect on crop, Glycine max (Glycine max)	e: effect on crop, Triticum aestivum (Triticum aestivum)	other results
Cc1nnc(NC(=O)c2ccc(C(F)(F)F)n3c(SC4CCCC4)nnc23)o1 [1-154]	0 (Herbicidal ratio of 5% or less (almost no effect))	0 (Herbicidal ratio of 5% or less (almost no effect))	2 (Herbicidal ratio of 20% or more and less than 40%)	2 (Herbicidal ratio of 20% or more and less than 40%)	0 (Herbicidal ratio of 5% or less (almost no effect))	2 (Herbicidal ratio of 20% or more and less than 40%)	0 (Herbicidal ratio of 5% or less (almost no effect))	0 (Herbicidal ratio of 5% or less (almost no effect))	5 (Herbicidal ratio of 90% or more (almost completely withered))	3 (Herbicidal ratio of 40% or more and less than 70%)	3 (Herbicidal ratio of 40% or more and less than 70%)	0 (Herbicidal ratio of 5% or less (almost no effect))	0 (Herbicidal ratio of 5% or less (almost no effect))	2 (Herbicidal ratio of 20% or more and less than 40%)	4 (Herbicidal ratio of 70% or more and less than 90%)	0 (Herbicidal ratio of 5% or less (almost no effect))	4 (Herbicidal ratio of 70% or more and less than 90%)	0 (Herbicidal ratio of 5% or less (almost no effect))	2 (Herbicidal ratio of 20% or more and less than 40%)	0 (Herbicidal ratio of 5% or less (almost no effect))	c: effect on crop, Zea mays (Zea mays): 0 (Herbicidal ratio of 5% or less (almost no effect)); b: effect on crop, directly sowed Oryza sativa [4]: 0 (Herbicidal ratio of 5% or less (almost no effect))
Cc1nnc(NC(=O)c2ccc(C(F)(F)F)n3c(SCc4ccc(Cl)nc4)nnc23)o1 [1-156]	0 (Herbicidal ratio of 5% or less (almost no effect))	2 (Herbicidal ratio of 20% or more and less than 40%)	3 (Herbicidal ratio of 40% or more and less than 70%)	3 (Herbicidal ratio of 40% or more and less than 70%)	1 (Herbicidal ratio of 5% or more and less than 20%)	3 (Herbicidal ratio of 40% or more and less than 70%)	2 (Herbicidal ratio of 20% or more and less than 40%)	1 (Herbicidal ratio of 5% or more and less than 20%)	5 (Herbicidal ratio of 90% or more (almost completely withered))	2 (Herbicidal ratio of 20% or more and less than 40%)	4 (Herbicidal ratio of 70% or more and less than 90%)	1 (Herbicidal ratio of 5% or more and less than 20%)	1 (Herbicidal ratio of 5% or more and less than 20%)	1 (Herbicidal ratio of 5% or more and less than 20%)	4 (Herbicidal ratio of 70% or more and less than 90%)	3 (Herbicidal ratio of 40% or more and less than 70%)	3 (Herbicidal ratio of 40% or more and less than 70%)	0 (Herbicidal ratio of 5% or less (almost no effect))	3 (Herbicidal ratio of 40% or more and less than 70%)	1 (Herbicidal ratio of 5% or more and less than 20%)	c: effect on crop, Zea mays (Zea mays): 0 (Herbicidal ratio of 5% or less (almost no effect)); b: effect on crop, directly sowed Oryza sativa [4]: 0 (Herbicidal ratio of 5% or less (almost no effect))
CCCn1nnnc1NC(=O)c1ccc(C(F)(F)F)n2c(C(C)C)nnc12 [2-090]	5 (Herbicidal ratio of 90% or more (almost completely withered))	4 (Herbicidal ratio of 70% or more and less than 90%)	5 (Herbicidal ratio of 90% or more (almost completely withered))	–	–	–	–	–	–	–	–	–	–	–	–	–	–	–	–	–	herbicidal effect, M (Abutilon theophrasti) (Abutilon theophrasti; 320 g/ha): 3 (Herbicidal ratio of 40% or more and less than 70%); herbicidal effect, J (Alopecurus myosuroides) (Alopecurus myosuroides; 320 g/ha): 3 (Herbicidal ratio of 40% or more and less than 70%); herbicidal effect, N (Amaranthus retroflexus) (Amaranthus retroflexus; 320 g/ha): 4 (Herbicidal ratio of 70% or more and less than 90%); herbicidal effect, L (Apera spica-venti.) (Apera spica-venti.; 320 g/ha): 4 (Herbicidal ratio of 70% or more and less than 90%); herbicidal effect, I (Avena fatua) (Avena fatua; 320 g/ha): 4 (Herbicidal ratio of 70% or more and less than 90%); herbicidal effect, F (Digitaria ciliaris) (Digitaria ciliaris; 320 g/ha): 5 (Herbicidal ratio of 90% or more (almost completely withered)); herbicidal effect, H (Echinochloa crus-galli var. crus-galli) ([2]; 320 g/ha): 5 (Herbicidal ratio of 90% or more (almost completely withered)); herbicidal effect, Q (Galium spurium) (Galium spurium; 320 g/ha): 4 (Herbicidal ratio of 70% or more and less than 90%); herbicidal effect, K (Lolium multiflorum Lam.) (Lolium multiflorum Lam.; 320 g/ha): 4 (Herbicidal ratio of 70% or more and less than 90%); herbicidal effect, G (Setaria viridis) (Setaria viridis; 320 g/ha): 4 (Herbicidal ratio of 70% or more and less than 90%); herbicidal effect, P (Stellaria media) (Stellaria media; 320 g/ha): 5 (Herbicidal ratio of 90% or more (almost completely withered)); herbicidal effect, R (Veronica persica) (Veronica persica; 320 g/ha): 3 (Herbicidal ratio of 40% or more and less than 70%); effect on crop, f (Beta vulgaris ssp. vulgaris) ([3]; 320 g/ha): 5 (Herbicidal ratio of 90% or more (almost completely withered)); effect on crop, g (Brassica campestris L.) (Brassica campestris L.; 320 g/ha): 4 (Herbicidal ratio of 70% or more and less than 90%); effect on crop, c (Glycine max) (Glycine max; 320 g/ha): 1 (Herbicidal ratio of 5% or more and less than 20%); effect on crop, e (Triticum aestivum) (Triticum aestivum; 320 g/ha): 3 (Herbicidal ratio of 40% or more and less than 70%); effect on crop, b (Zea mays) (Zea mays; 320 g/ha): 3 (Herbicidal ratio of 40% or more and less than 70%); effect on crop, d (directly sowed Oryza sativa) ([4]; 320 g/ha): 3 (Herbicidal ratio of 40% or more and less than 70%)
